Measured values taken from the supplement of paper PMC10307832.

Tests used:
Assay in all cases: relative viability (nuclei count vs DMSO), 5 days (fraction); higher = more cells survive
NCI-H2009 = system: NCI-H2009
Procedure, shortened: (§1)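 Lung cancer cell lines, seeded in 1536-well plates, were treated the following day by pin tool with a single drug or with five library-drug doses (not always all listed) in √10 steps on top of a fixed anchor-drug dose. Cells were fixed and nuclei stained in one step after 5 days, and nuclei were counted. Relative viability is the nuclei count for treated wells divided by that for vehicle wells, reported as medians of duplicate plates.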

UMC-11 = system: UMC-11
Procedure, shortened: as §1

PC-14 = system: PC-14
Procedure, shortened: as §1

NCI-H1395 = system: NCI-H1395
Procedure, shortened: as §1

NCI-H596 = system: NCI-H596
Procedure, shortened: as §1

NCI-H1755 = system: NCI-H1755
Procedure, shortened: as §1

HCC-827 = system: HCC-827
Procedure, shortened: as §1

NCI-H2170 = system: NCI-H2170
Procedure, shortened: as §1

NCI-H1650 = system: NCI-H1650
Procedure, shortened: as §1

LCLC-97TM1 = system: LCLC-97TM1
Procedure, shortened: as §1

HCC-78 = system: HCC-78
Procedure, shortened: as §1

SK-LU-1 = system: SK-LU-1
Procedure, shortened: as §1

NCI-H727 = system: NCI-H727
Procedure, shortened: as §1

NCI-H2023 = system: NCI-H2023
Procedure, shortened: as §1

BEN = system: BEN
Procedure, shortened: as §1

EKVX = system: EKVX
Procedure, shortened: as §1

LK-2 = system: LK-2
Procedure, shortened: as §1

EMC-BAC-2 = system: EMC-BAC-2
Procedure, shortened: as §1

CAL-12T = system: CAL-12T
Procedure, shortened: as §1

NCI-H1437 = system: NCI-H1437
Procedure, shortened: as §1

LOU-NH91 = system: LOU-NH91
Procedure, shortened: as §1

EPLC-272H = system: EPLC-272H
Procedure, shortened: as §1

Q: How did the relative viability (NCI-H2009; first compound 0.253 µM) turn out when Nc1cccc2c1CN(C1CCC(=O)NC1=O)C2=O (centres undefined) [Lenalidomide] + CC1(C)CCC(c2ccc(Cl)cc2)=C(CN2CCN(c3ccc(C(=O)NS(=O)(=O)c4ccc(N[C@H](CCN5CCOCC5)CSc5ccccc5)c(S(=O)(=O)C(F)(F)F)c4)cc3)CC2)C1 [Navitoclax] (partner 0.5 µM) was run?
A: 1.21

Q: What about the relative viability (NCI-H2009; first compound 0.8 µM) of the same compound?
A: 1.26

Q: What about the relative viability (NCI-H2009; first compound 2.53 µM) of the same compound?
A: 1.21

Q: What about the relative viability (NCI-H2009; first compound 8 µM) of the same compound?
A: 1.28

Q: What about the relative viability (UMC-11; first compound 0.253 µM) of the same compound?
A: 0.317

Q: What about the relative viability (UMC-11; first compound 0.8 µM) of the same compound?
A: 0.28

Q: What about the relative viability (UMC-11; first compound 2.53 µM) of the same compound?
A: 0.346

Q: What about the relative viability (UMC-11; first compound 8 µM) of the same compound?
A: 0.277

Q: What about the relative viability (PC-14; first compound 0.253 µM) of the same compound?
A: 0.907

Q: What about the relative viability (PC-14; first compound 0.8 µM) of the same compound?
A: 1.02

Q: And the relative viability (PC-14; first compound 2.53 µM)?
A: 1.08

Q: What about the relative viability (PC-14; first compound 8 µM) of the same compound?
A: 1.05

Q: What about the relative viability (NCI-H1395; first compound 0.253 µM) of the same compound?
A: 1.2

Q: And the relative viability (NCI-H1395; first compound 2.53 µM)?
A: 1.31

Q: And the relative viability (NCI-H1395; first compound 8 µM)?
A: 0.978

Q: And the relative viability (NCI-H596; first compound 0.253 µM)?
A: 0.951

Q: And the relative viability (NCI-H596; first compound 0.8 µM)?
A: 0.795

Q: What about the relative viability (NCI-H596; first compound 2.53 µM) of the same compound?
A: 0.989

Q: What about the relative viability (NCI-H596; first compound 8 µM) of the same compound?
A: 0.879

Q: What about the relative viability (NCI-H1755; first compound 0.253 µM) of the same compound?
A: 0.994

Q: And the relative viability (NCI-H1755; first compound 0.8 µM)?
A: 1.01

Q: And the relative viability (NCI-H1755; first compound 2.53 µM)?
A: 1.01

Q: And the relative viability (NCI-H1755; first compound 8 µM)?
A: 0.745

Q: What about the relative viability (HCC-827; first compound 0.253 µM) of the same compound?
A: 1.06

Q: And the relative viability (HCC-827; first compound 0.8 µM)?
A: 0.977

Q: And the relative viability (HCC-827; first compound 2.53 µM)?
A: 1.01

Q: And the relative viability (HCC-827; first compound 8 µM)?
A: 1.07

Q: What about the relative viability (NCI-H2170; first compound 0.253 µM) of the same compound?
A: 0.552

Q: And the relative viability (NCI-H2170; first compound 0.8 µM)?
A: 0.595

Q: And the relative viability (NCI-H2170; first compound 2.53 µM)?
A: 0.593

Q: What about the relative viability (NCI-H2170; first compound 8 µM) of the same compound?
A: 0.481

Q: And the relative viability (NCI-H1650; first compound 0.253 µM)?
A: 1.06

Q: What about the relative viability (NCI-H1650; first compound 0.8 µM) of the same compound?
A: 1.22

Q: What about the relative viability (NCI-H1650; first compound 2.53 µM) of the same compound?
A: 1.4

Q: And the relative viability (NCI-H1650; first compound 8 µM)?
A: 1.24

Q: What about the relative viability (LCLC-97TM1; first compound 0.8 µM) of the same compound?
A: 0.544

Q: And the relative viability (LCLC-97TM1; first compound 2.53 µM)?
A: 0.502

Q: And the relative viability (LCLC-97TM1; first compound 8 µM)?
A: 0.407

Q: And the relative viability (HCC-78; first compound 0.253 µM)?
A: 0.834

Q: What about the relative viability (HCC-78; first compound 0.8 µM) of the same compound?
A: 0.72

Q: And the relative viability (HCC-78; first compound 2.53 µM)?
A: 0.842

Q: What about the relative viability (HCC-78; first compound 8 µM) of the same compound?
A: 0.654

Q: What about the relative viability (SK-LU-1; first compound 0.253 µM) of the same compound?
A: 0.729

Q: What about the relative viability (SK-LU-1; first compound 0.8 µM) of the same compound?
A: 0.946

Q: And the relative viability (SK-LU-1; first compound 2.53 µM)?
A: 1.45

Q: And the relative viability (SK-LU-1; first compound 8 µM)?
A: 0.924

Q: And the relative viability (NCI-H727; first compound 0.253 µM)?
A: 0.449

Q: What about the relative viability (NCI-H727; first compound 2.53 µM) of the same compound?
A: 0.387

Q: And the relative viability (NCI-H727; first compound 8 µM)?
A: 0.345

Q: What about the relative viability (NCI-H2023; first compound 0.253 µM) of the same compound?
A: 1

Q: And the relative viability (NCI-H2023; first compound 0.8 µM)?
A: 1.13

Q: And the relative viability (NCI-H2023; first compound 2.53 µM)?
A: 1.05

Q: And the relative viability (NCI-H2023; first compound 8 µM)?
A: 1.01

Q: What about the relative viability (BEN; first compound 0.253 µM) of the same compound?
A: 0.0599

Q: What about the relative viability (BEN; first compound 0.8 µM) of the same compound?
A: 0.0573

Q: What about the relative viability (BEN; first compound 2.53 µM) of the same compound?
A: 0.0663

Q: What about the relative viability (BEN; first compound 8 µM) of the same compound?
A: 0.0611

Q: And the relative viability (EKVX; first compound 0.253 µM)?
A: 0.882

Q: And the relative viability (EKVX; first compound 0.8 µM)?
A: 0.855

Q: And the relative viability (EKVX; first compound 2.53 µM)?
A: 1.13

Q: What about the relative viability (EKVX; first compound 8 µM) of the same compound?
A: 0.843

Q: And the relative viability (LK-2; first compound 0.253 µM)?
A: 0.817

Q: And the relative viability (LK-2; first compound 0.8 µM)?
A: 0.85

Q: What about the relative viability (LK-2; first compound 2.53 µM) of the same compound?
A: 0.959

Q: What about the relative viability (LK-2; first compound 8 µM) of the same compound?
A: 0.709

Q: And the relative viability (EMC-BAC-2; first compound 0.253 µM)?
A: 1.18

Q: And the relative viability (EMC-BAC-2; first compound 0.8 µM)?
A: 1.15

Q: And the relative viability (EMC-BAC-2; first compound 2.53 µM)?
A: 1.33

Q: What about the relative viability (EMC-BAC-2; first compound 8 µM) of the same compound?
A: 0.975

Q: And the relative viability (CAL-12T; first compound 0.253 µM)?
A: 1.4

Q: And the relative viability (CAL-12T; first compound 0.8 µM)?
A: 1.33

Q: What about the relative viability (CAL-12T; first compound 2.53 µM) of the same compound?
A: 1.7

Q: What about the relative viability (CAL-12T; first compound 8 µM) of the same compound?
A: 1.3

Q: And the relative viability (NCI-H1437; first compound 0.253 µM)?
A: 1.08

Q: And the relative viability (NCI-H1437; first compound 0.8 µM)?
A: 1.09

Q: What about the relative viability (NCI-H1437; first compound 2.53 µM) of the same compound?
A: 1.14

Q: And the relative viability (NCI-H1437; first compound 8 µM)?
A: 1.14

Q: What about the relative viability (LOU-NH91; first compound 0.253 µM) of the same compound?
A: 0.614

Q: What about the relative viability (LOU-NH91; first compound 0.8 µM) of the same compound?
A: 0.631

Q: What about the relative viability (LOU-NH91; first compound 2.53 µM) of the same compound?
A: 0.673

Q: What about the relative viability (LOU-NH91; first compound 8 µM) of the same compound?
A: 0.692

Q: What about the relative viability (EPLC-272H; first compound 0.253 µM) of the same compound?
A: 1.24

Q: And the relative viability (EPLC-272H; first compound 2.53 µM)?
A: 0.917

Q: And the relative viability (EPLC-272H; first compound 8 µM)?
A: 0.741
